From patent US6284910A, “Farnesyl pyrophosphate analogs” (University of Kentucky Research Foundation, priority 1999, dated 2001)
Entries after “also recorded” stand apart in the source; their conditions may differ.

What was measured:
Assay type in all cases: biochemical
GGTase I = assay: Transfer of [^3 H]AGPP by GGTase I to H-Ras-CVLL
FTase = FTase (Rattus norvegicus, UniProt Q02293+Q04631); assay: Inhibition of FTase-catalyzed transfer of [^3 H]AGPP to p21^H-ras; parameters: H-Ras is only the protein substrate; settings: non-radiolabeled compound, time and concentration dependent transfer
Method: Assay for Farnesyltransferase Activity--Farnesyltransferase activity was assayed by measuring the amount of [^3 H]farnesyl or [^3 H]anilinogeranyl transferred from [^3 H]FPP or [^3 H]AGPP to recombinant p21^H-ras, as described previously (31). Unless otherwise stated, each reaction mixture contained the following components in a final volume of 25 μl: 50 mM Tris (pH 7.4), 20 mM KCl, 0.2% octyl β-glucopyranoside, 1 mM dithiothreitol, 10-20 ng recombinant FTase, 5 μM p21^Ha-ras, 3 mM MgCl2, 50 μM ZnCl2, and 0.6 μM [^3 H]FPP (33,000 dpm/pmol; American Radiochemical Co.) or 0.1-5 μM [^3 H]AGPP (37,400 dpm/pmol). Following incubation for the indicated times at 37° C., the amount of [^3 H]prenyl transferred was measured by ethanol-HCl precipitation and filtration on glass fiber filters with modification as previously described (19). A blank value was determined in parallel incubation mixtures containing no enzyme. This blank value was subtracted from each reaction before calculating pmol [^3 H]prenyl transferred.
The observed inhibition kinetics could be a manifestation of the ability of AGPP to act as an alternative substrate for FTase. To evaluate the potential of AGPP to serve as a substrate of FTase, [^3 H]-AGPP was prepared by a similar route as described above, incorporating tritium with a specific activity of 17 Ci/mmol (synthesis to be reported elsewhere). […] The incorporated radioactivity was detected as a band of the expected molecular weight of farnesylated p21^H-ras on SDS-polyacrylamide gels (FIG. 4A, inset). […] The concentration of [^3 H]AGPP that gave half-maximal reaction velocity was approximately 0.5 μM (FIG. 4B).

squalene synthase = target: T1, squalene synthase (Bos taurus, UniProt Q32KR6); assay: Inhibition of squalene synthase activity in bovine brain microsomes; settings: 0.05 mM [^3 H]FPP
T1 construct: squalene synthase activity present in bovine brain microsome fractions; from tissue; host or cells: bovine brain microsomes (crude)
T1 sequence (Q32KR6 1-417): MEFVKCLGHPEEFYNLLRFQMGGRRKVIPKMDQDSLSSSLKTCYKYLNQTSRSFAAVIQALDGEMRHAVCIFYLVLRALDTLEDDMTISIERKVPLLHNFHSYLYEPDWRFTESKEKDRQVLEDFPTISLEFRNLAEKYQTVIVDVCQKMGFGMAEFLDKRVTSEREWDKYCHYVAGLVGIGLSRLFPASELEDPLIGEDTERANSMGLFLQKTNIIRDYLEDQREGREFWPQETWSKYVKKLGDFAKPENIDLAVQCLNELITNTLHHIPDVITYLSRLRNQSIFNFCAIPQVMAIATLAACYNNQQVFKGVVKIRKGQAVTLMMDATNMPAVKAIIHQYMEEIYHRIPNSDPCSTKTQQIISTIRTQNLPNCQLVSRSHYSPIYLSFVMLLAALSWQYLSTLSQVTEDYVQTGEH
Method: FIG. 7. Inhibition of Squalene Synthase by AGPP. The initial rates of squalene synthase activity were determined from bovine brain microsomal preparations in the presence of the indicated concentration of unlabeled AGPP (filled squares) or unlabeled FPP (open triangles) under the in vitro conditions described in "Experimental Procedures." Crude bovine brain microsomes and 0.05 mM [^3 H]FPP (105 cpm/pmol) and unlabeled AGPP and FPP were added at the indicated concentrations and incubated for 30 min. at 37° C. The reactions were terminated with 40% (wt/vol) KOH and 95% ethanol. Authentic carrier squalene (20 μg) was added and the reactions extracted with petroleum ether. The amount of labeled lipid formed was measured by scintillation counting. […]
Assay for Squalene Synthase Activity--Initial rates of squalene synthase activity present in bovine brain microsome fractions were assayed as previously described (19) with minor modifications. […] The remaining sample was analyzed on Silica gel G 60 TLC plates by developing with hexane (33). […]
FIG. 7 depicts inhibition of Squalene Synthase by AGPP. The initial rates of squalene synthase activity were determined from bovine brain microsomal preparations in the presence of the indicated concentration of unlabeled AGPP (filled squares) or unlabeled FPP (open triangles) (77). […] The amount of labeled lipid formed was measured by scintillation counting.

Compound: C/C(=C\COP(=O)(O)OP(=O)(O)O)CC/C=C(\C)CNc1ccccc1 [AGPP, (E,E)-8-Aniline-3,7-dimethyl-2,6-octadiene pyrophosphate]
- transfer by GGTase I, in words (GGTase I): transferred by GGTase I to H-Ras-CVLL with a low efficiency
- inhibition of transfer of [^3 H]AGPP to p21^H-ras, in words (FTase): found to inhibit
- inhibition of squalene synthase, in words (squalene synthase): does not Inhibit Squalene Synthase Activity; also recorded: far less potent in vitro inhibitor of squalene synthase activity than FPP; also recorded: far less potent in vitro inhibitor of squalene synthase activity than for FTase
- IC50 (squalene synthase; 37° C., 30 min): 1000 µM
